Results: PubChem BioAssay AID248 (DTP/NCI, 2004)
Where “and” joins values, the source holds several entries; their conditions need not be identical. Equal entries are not always repeated. Toxic doses and inconclusive results are not listed. No stated cut-off is given here; in the data, active means T/C of 150% or more; inactive means T/C below 125%.

Tested on: L1210 leukemia ip in BDF1 mice, survival T/C
Experiment: NCI In Vivo Anticancer Drug Screen. Data for tumor model L1210 Leukemia (intraperitoneal) in B6D2F1 (BDF1) mice
Settings: endpoint: mean survival time, higher = longer survival
How it was run: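 Antitumor effect is assessed in tumor-bearing animals. Survival in the compound arm is compared with a vehicle-dosed control arm and expressed as their quotient.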

[1] = dose: 100.0 mg/kg/injection, schedule: Q01DX001 (ip), vehicle: saline
[2] = dose: 100.0 mg/kg/injection, schedule: Q04DX003 (ip), vehicle: saline with Tween-80
[3] = dose: 200.0 mg/kg/injection, schedule: Q04DX003 (ip), vehicle: saline with Tween-80
[4] = dose: 400.0 mg/kg/injection, schedule: Q04DX003 (ip), vehicle: saline with Tween-80
[5] = dose: 50.0 mg/kg/injection, schedule: Q01DX009 (ip), vehicle: saline with Tween-80
[6] = dose: 100.0 mg/kg/injection, schedule: Q01DX009 (ip), vehicle: saline with Tween-80
[7] = dose: 200.0 mg/kg/injection, schedule: Q01DX009 (ip), vehicle: saline with Tween-80
[8] = dose: 100.0 mg/kg/injection, schedule: Q01DX009 (ip), vehicle: Klucel (hydroxypropylcellulose) (HPC)
[9] = dose: 100.0 mg/kg/injection, schedule: Q04DX002 (ip), vehicle: Klucel (hydroxypropylcellulose) (HPC)
[10] = dose: 200.0 mg/kg/injection, schedule: Q01DX009 (ip), vehicle: Klucel (hydroxypropylcellulose) (HPC)
[11] = dose: 200.0 mg/kg/injection, schedule: Q04DX002 (ip), vehicle: Klucel (hydroxypropylcellulose) (HPC)
[12] = dose: 400.0 mg/kg/injection, schedule: Q01DX009 (ip), vehicle: Klucel (hydroxypropylcellulose) (HPC)
[13] = dose: 400.0 mg/kg/injection, schedule: Q04DX002 (ip), vehicle: Klucel (hydroxypropylcellulose) (HPC)
[14] = dose: 100.0 mg/kg/injection, schedule: Q04DX003 (ip), vehicle: Klucel (hydroxypropylcellulose) (HPC)
[15] = dose: 200.0 mg/kg/injection, schedule: Q04DX003 (ip), vehicle: Klucel (hydroxypropylcellulose) (HPC)
[16] = dose: 400.0 mg/kg/injection, schedule: Q04DX003 (ip), vehicle: Klucel (hydroxypropylcellulose) (HPC)
[17] = dose: 50.0 mg/kg/injection, schedule: Q01DX001 (ip), vehicle: carboxymethylcellulose (CMC)
[18] = dose: 100.0 mg/kg/injection, schedule: Q01DX001 (ip), vehicle: carboxymethylcellulose (CMC)
[19] = dose: 200.0 mg/kg/injection, schedule: Q01DX001 (ip), vehicle: carboxymethylcellulose (CMC)
[20] = dose: 400.0 mg/kg/injection, schedule: Q01DX001 (ip), vehicle: carboxymethylcellulose (CMC)
[21] = dose: 100.0 mg/kg/injection, schedule: Q01DX009 (ip), vehicle: saline
[22] = dose: 100.0 mg/kg/injection, schedule: Q04DX002 (ip), vehicle: saline
[23] = dose: 200.0 mg/kg/injection, schedule: Q01DX009 (ip), vehicle: saline
[24] = dose: 200.0 mg/kg/injection, schedule: Q04DX002 (ip), vehicle: saline
[25] = dose: 200.0 mg/kg/injection, schedule: Q01DX001 (ip), vehicle: saline
[26] = dose: 400.0 mg/kg/injection, schedule: Q01DX001 (ip), vehicle: saline

Measured: T/C

CC(=O)Oc1ccc(OC(C)=O)c2c1C(=O)C=CC2=O
inactive: dose: 0.78 mg/kg/injection, schedule: Q04DX002 (ip), vehicle: alcohol 110 % of control | dose: 1.56 mg/kg/injection, schedule: Q04DX002 (ip), vehicle: alcohol 100 % of control | dose: 3.12 mg/kg/injection, schedule: Q04DX002 (ip), vehicle: alcohol 106 % of control | dose: 6.25 mg/kg/injection, schedule: Q04DX002 (ip), vehicle: alcohol 93 % of control | [1] 107 % of control

NS(=O)(=O)c1ccc(NC2OCC(O)C(O)C2O)cc1 (stereo unspecified)
inactive: [2] 98 % of control | [3] 100 % of control | [4] 102 % of control

CCCCCCCCCCCCCCCCCCNC(=S)NC1CCCCC1
inactive: dose: 60.0 mg/kg/injection, schedule: Q01DX015 (ip), vehicle: carboxymethylcellulose (CMC) 98 % of control | dose: 120.0 mg/kg/injection, schedule: Q01DX015 (ip), vehicle: carboxymethylcellulose (CMC) 96 % of control | dose: 240.0 mg/kg/injection, schedule: Q01DX015 (ip), vehicle: carboxymethylcellulose (CMC) 96 % of control | dose: 480.0 mg/kg/injection, schedule: Q01DX015 (ip), vehicle: carboxymethylcellulose (CMC) 98 % of control

CCCCCCCCCCCCSCO
inactive: dose: 25.0 mg/kg/injection, schedule: Q01DX009 (ip), vehicle: saline with Tween-80 118 % of control | [5] 105 % of control | [6] 101 % of control and 91 % of control | [2] 105 % of control | [7] 90 % of control | [3] 96 % of control

Nc1ccc(C(=O)c2ccc(N)cc2)cc1
inactive: [8] 98 % of control | [9] 107 % of control | [10] 120 % of control | [11] 104 % of control | [12] 106 % of control | [13] 96 % of control

O=[N+]([O-])c1cc(Br)cc2c1nc(NCCO)c1ccccc12
inactive: [14] 103 % of control | [15] 119 % of control | [16] 101 % of control

NC(=O)c1ccc[n+](CC(=O)Nc2ccccc2)c1
inactive: [2] 101 % of control | [3] 97 % of control | [4] 95 % of control

OCC1CC(n2cnc3c(Cl)ncnc32)C(O)C1O (stereo unspecified)
inactive: dose: 75.0 mg/kg/injection, schedule: Q01DX009 (ip), vehicle: saline with Tween-80 107 % of control | [6] 101 % of control | dose: 150.0 mg/kg/injection, schedule: Q01DX009 (ip), vehicle: saline with Tween-80 92 % of control

N#CCCC[P+](c1ccccc1)(c1ccccc1)c1ccccc1
inactive: dose: 75.0 mg/kg/injection, schedule: Q01DX001 (ip), vehicle: other 97 % of control | [9] 98 % of control

OCCCc1cc(Cl)ccc1O
inactive: [17] 100 % of control | [18] 100 % of control | [19] 94 % of control | [20] 92 % of control

CCOC(=O)C1(C(C)C)OC2(O)CCCCCN2C1=O (stereo unspecified)
inactive: dose: 50.0 mg/kg/injection, schedule: Q01DX009 (ip), vehicle: saline 95 % of control | [21] 100 % of control | [22] 89 % of control | [23] 95 % of control | [24] 92 % of control

O=C(Nc1cccc(S(=O)(=O)F)c1)c1ccc([N+](=O)[O-])cc1
inactive: [1] 107 % of control | [25] 103 % of control | [26] 90 % of control

Cc1nnc2c([N+](=O)[O-])cccn12
inactive: [1] 98 % of control | [25] 103 % of control

O=C(OC12CCCCC(CCCC1)O2)c1ccc([N+](=O)[O-])cc1
inactive: [1] 91 % of control | [25] 93 % of control | [26] 98 % of control

O=C(Nc1nccs1)Nc1cc([N+](=O)[O-])ccc1F
inactive: [14] 88 % of control | [15] 91 % of control | [16] 88 % of control

O=c1cc(O)ccn1CCc1cccs1
inactive: [6] 94 % of control | [2] 91 % of control | [7] 96 % of control | [3] 98 % of control | [4] 90 % of control

CSC(SC)C(O)C(O)C(O)C(O)CO (stereo unspecified)
inactive: dose: 50.0 mg/kg/injection, schedule: Q04DX002 (ip), vehicle: saline 103 % of control | [22] 113 % of control | [24] 92 % of control

c1cc[n+]2c(c1)CC[n+]1ccccc1CC2
inactive: [17] 106 % of control | [18] 100 % of control | [19] 122 % of control | [20] 106 % of control

O=[N+]([O-])c1ccc(OCCCOc2ccccc2)cc1
inactive: [8] 112 % of control | [14] 97 % of control | [10] 101 % of control | [15] 103 % of control | [12] 98 % of control | [16] 100 % of control

COc1ccc2c(c1)C(C)(C)N(C)CC2
inactive: dose: 100.0 mg/kg/injection, schedule: Q04DX003 (ip), vehicle: acetone 104 % of control

O=C(COc1ccc(Cl)cc1)Nc1ccc(F)cc1
inactive: [8] 98 % of control | [14] 95 % of control | [10] 90 % of control | [16] 95 % of control

CC(C)(CBr)COC(=O)Nc1cccc2ccccc12
inactive: [5] 91 % of control | [7] 87 % of control

O=C(Nc1ccccc1F)Nc1ccc(Cl)cc1Cl
inactive: [21] 100 % of control | [23] 100 % of control | dose: 400.0 mg/kg/injection, schedule: Q01DX009 (ip), vehicle: saline 98 % of control

NCCOB(c1ccccc1)c1ccccc1
inactive: dose: 3.8 mg/kg/injection, schedule: Q01DX009 (ip), vehicle: saline with Tween-80 94 % of control | dose: 7.5 mg/kg/injection, schedule: Q01DX009 (ip), vehicle: saline with Tween-80 105 % of control | dose: 15.0 mg/kg/injection, schedule: Q01DX009 (ip), vehicle: saline with Tween-80 91 % of control

COc1ccc(NC(=O)Nc2ccc(Cl)cc2OC)cc1
inactive: dose: 25.0 mg/kg/injection, schedule: Q04DX002 (ip), vehicle: saline with Tween-80 93 % of control | dose: 50.0 mg/kg/injection, schedule: Q04DX002 (ip), vehicle: saline with Tween-80 96 % of control | dose: 100.0 mg/kg/injection, schedule: Q04DX002 (ip), vehicle: saline with Tween-80 89 % of control

O=S(=O)(Cc1cccc(Cl)c1)c1ccccc1
inactive: [9] 96 % of control | [11] 107 % of control | [13] 104 % of control

NC12C3(Cl)C4(Cl)C5(OCCO5)C5(Cl)C3(Cl)C1(Cl)C5(Cl)C24Cl (stereo unspecified)
inactive: dose: 50.0 mg/kg/injection, schedule: Q01DX001 (ip), vehicle: saline 102 % of control | [1] 102 % of control | [25] 90 % of control | [26] 102 % of control
